We go through 38 compounds from patent US4493843A, “Indole and indoline carboxylic acid compounds and method of use” (May & Baker Limited, priority 1980, dated 1985).

Counter-ions that a name gives are not always drawn. Like-named read-outs stand apart in the source and are kept apart here.

In this test the test system is serum cholesterol and serum triglycerides. The test can be described thus: Hypolipidaemic activity in rats (compound in diet, last 7 of 10 days). The class given is in vivo, Male Wistar rats. To be noted: 7 days; for change in vivo at 0.2 % strength / change in vivo at 0.1 % strength: Rattus norvegicus, po, 168 h; for change in vivo at 0.1 % strength: 0.1 % w/w dose in diet. The protocol:
Hypolipidaemic Activity in Rats
Male Wistar rats each weighing between 120 and 150 g were caged in groups of eight and fed a powdered diet for 10 days. For the last 7 days of that period the test compound was administered orally by mixing the compound in the diet and allowing the animals to feed normally. Food consumption was measured on day 9 for each group.
At noon on day 10 the animals were killed by inhalation of carbon dioxide from solid carbon dioxide. A sample of blood was removed by cardiac puncture and the serum cholesterol and serum triglycerides were analysed by means of an autoanalyser.
Control groups (receiving only the normal, unmedicated diet) were included with each test.
The percentage reductions in the concentrations of serum cholesterol and serum triglycerides were calculated by comparison with the simultaneous controls, for each concentration of the test compound used.

[1] abbreviates: 0.2 % w/w dose in diet, read-out: % change in serum cholesterol compared with control.
[2] abbreviates: 0.2 % w/w dose in diet, read-out: % change in serum triglycerides compared with control.
Where [3] appears, read: read-out: % change in serum cholesterol compared with control.
Setting [4] is: read-out: % change in serum triglycerides compared with control.

Regarding `CCCCCCCCCCCCCCCCCCC1CNc2cc(C(=O)O)ccc21` (racemic) [Compound CBB, (RS)-3-(n-octadecyl)indoline-6-carboxylic acid], the change in vivo at 0.2 % strength is 2% under setting [1] and -7% under setting [2].
For the compound `CCCCCCCCCCCc1cc2cccc(C(=O)O)c2[nH]1` [Compound XX, 2-(n-undecyl)indole-7-carboxylic acid], the change in vivo at 0.2 % strength reads like this: under setting [1], -2%; under setting [2], 8%.
For the compound `CCCCCCCCCc1cc2ccc(C(=O)O)cc2[nH]1` [Compound L, 2-(n-nonyl)indole-6-carboxylic acid], the change in vivo at 0.2 % strength under setting [1] was -21% and the change in vivo at 0.2 % strength under setting [2] is -25%.
Take `CCCCCCCCc1cc2cc(C(=O)O)ccc2[nH]1` [Compound X, 2-(n-octyl)indole-5-carboxylic acid]: the change in vivo at 0.2 % strength is, setting by setting: under setting [1], -18%; under setting [2], -25%.
With `CCCCCCCCCCCCCCCCc1c[nH]c2ccc(C(=O)OC)cc12` [Compound BCC, methyl 3-(n-hexadecyl)indole-5-carboxylate], the change in vivo at 0.2 % strength under setting [1] amounted to 2% and the change in vivo at 0.2 % strength under setting [2] came to 16%.
Take `CCCCCCCc1cc2ccc(C(=O)OC)cc2[nH]1` [Compound AII, methyl 2-(n-heptyl)indole-6-carboxylate]: the change in vivo at 0.2 % strength under setting [1] was found to be 7% and the change in vivo at 0.2 % strength under setting [2] stood at 20%.
With `CCCCCCCCCCCCCCc1cc2ccc(C(=O)O)cc2[nH]1` [Compound SS, 2-(n-tetradecyl)indole-6-carboxylic acid], the change in vivo at 0.2 % strength is -14% under setting [1] and 3% under setting [2].
Consider `CCCCCCCCCCCCCCCCCC1Cc2cc(C(=O)O)ccc2N1` (racemic) [Compound ADD, (RS)-2-(n-heptadecyl)indoline-5-carboxylic acid], for which the change in vivo at 0.2 % strength was -6% under setting [1] and -40% under setting [2].
For `CCCCCCCCCCCCCCCc1cc2c(C(=O)O)cccc2[nH]1` [Compound J, 2-(n-pentadecyl)indole-4-carboxylic acid], the change in vivo at 0.2 % strength is -9% under setting [1] and -2% under setting [2].
As to `CCCCCCCCCCCCCCCc1cc2cc(C(=O)OC)ccc2[nH]1` [Compound LL, methyl 2-(n-pentadecyl)indole-5-carboxylate], the change in vivo at 0.1 % strength reads like this: under setting [3], -13%; under setting [4], -32%. For the same compound, the change in vivo at 0.2 % strength was -16% under setting [1] and -22% under setting [2].
Regarding `CCCCCCCCCCCc1cc2cc(C(=O)OCC)ccc2[nH]1` [Compound U, ethyl 2-(n-undecyl)indole-5-carboxylate], the change in vivo at 0.2 % strength was -13% under setting [1] and -39% under setting [2].
Taken in the same sequence, the figures for `CCCCCCCCCCCCCCCCCCc1c[nH]c2cc(C(=O)O)ccc12` [Compound BGG, 3-(n-octadecyl)indole-6-carboxylic acid] were -7% and -7%.
On to `CCCCCCCCCC(C)c1cc2ccc(C(=O)O)cc2[nH]1` (racemic) [Compound VV, (RS)-2-(1-methyldecyl)indole-6-carboxylic acid], for which the change in vivo at 0.2 % strength runs as follows: under setting [1], -40%; under setting [2], -73%.
On to `CCCCCCCCCCCCCc1cc2ccc(C(=O)O)cc2[nH]1` [Compound A, 2-(n-tridecyl)indole-6-carboxylic acid], for which the change in vivo at 0.2 % strength reads like this: under setting [1], -26%; under setting [2], -33%.
Taken in the same sequence, the figures for `CCCCCCCCCCCCCc1cc2ccc(C(=O)OCC)cc2[nH]1` [Compound AMM, ethyl 2-(n-tridecyl)indole-6-carboxylate] were -4% and -12%.
Taken in the same sequence, the figures for `CCCCCCCCc1c[nH]c2cc(C(=O)OC)ccc12` [Compound AZZ, methyl 3-(n-octyl)indole-6-carboxylate] were -18% and 24%.
For the compound `CCCCCCCCCCCc1cc2ccc(C(=O)O)cc2[nH]1` [Compound C, 2-(n-undecyl)indole-6-carboxylic acid], the change in vivo at 0.1 % strength under setting [3] was -28% and the change in vivo at 0.1 % strength under setting [4] was -39%.
Turning to `CCCCCCCCCCCc1cc2ccc(C(=O)OCCCC)cc2[nH]1` [Compound GG, n-butyl 2-(n-undecyl)indole-6-carboxylate], the change in vivo at 0.2 % strength runs as follows: under setting [1], -11%; under setting [2], -35%.
`CCCCCCCCCCCCCCCC1CNc2cc(C(=O)O)ccc21` (racemic) [Compound BZZ, (RS)-3-(n-pentadecyl)indoline-6-carboxylic acid]: the change in vivo at 0.2 % strength under setting [1] was -1% and the change in vivo at 0.2 % strength under setting [2] is -29%.
`CCCCCCCCCCc1cc2ccc(C(=O)O)cc2[nH]1` [Compound N, 2-(n-decyl)indole-6-carboxylic acid]: the change in vivo at 0.2 % strength by setting is: under setting [1], -20%; under setting [2], -45%.
In the case of `CCCCCCCCCCCCc1c[nH]c2cc(C(=O)O)ccc12` [Compound BDD, 3-(n-dodecyl)indole-6-carboxylic acid], the change in vivo at 0.2 % strength is, setting by setting: under setting [1], -2%; under setting [2], -5%.
Consider `CCCCCCCCc1cc2ccc(C(=O)O)cc2[nH]1` [Compound P, 2-(n-octyl)indole-6-carboxylic acid], for which the change in vivo at 0.2 % strength is -32% under setting [1] and -37% under setting [2].
Taken in the same sequence, the figures for `CCCCCCCCCCCCC1CNc2cc(C(=O)O)ccc21` (racemic) [Compound CAA, (RS)-3-(n-dodecyl)indoline-6-carboxylic acid] were -28% and -46%.
Turning to `CCCCCCCCCCCCCCC1Cc2ccc(C(=O)O)cc2N1` (racemic) [Compound AGG, (RS)-2-(n-tetradecyl)indoline-6-carboxylic acid], the change in vivo at 0.2 % strength runs as follows: under setting [1], -8%; under setting [2], -23%.
For `CCCCCCCCCCCCCCCCCc1cc2cc(C(=O)OC)ccc2[nH]1` [Compound AWW, methyl 2-(n-heptadecyl)indole-5-carboxylate], the change in vivo at 0.2 % strength under setting [1] was -24%.
Consider `CCCCCCCc1cc2cc(C(=O)OCCCC)ccc2[nH]1` [Compound ARR, n-butyl 2-(n-heptyl)indole-5-carboxylate], for which the change in vivo at 0.2 % strength reads like this: under setting [1], 8%; under setting [2], 20%.
As for `CCCCCCCCCC(C)c1cc2cc(C(=O)O)ccc2[nH]1` (racemic) [Compound RR, (RS)-2-(1-methyldecyl)indole-5-carboxylic acid], the change in vivo at 0.2 % strength is -7% under setting [1] and -88% under setting [2].
Consider `CCCCCCCCCCCc1cc2ccc(C(=O)O)cc2[nH]1` [C sodium salt], for which, where the note is “0.2 % w/w dose in diet, oral”, the “% change in serum cholesterol compared with control” value is given as -41% and the “% change in serum triglycerides compared with control” value is given as -46%.
`CCCCCCCCCCCCCCCc1cc2cccc(C(=O)O)c2[nH]1` [Compound I, 2-(n-pentadecyl)indole-7-carboxylic acid]: the change in vivo at 0.2 % strength runs as follows: under setting [1], -26%; under setting [2], -33%.
Regarding `CCCCCCCCc1c[nH]c2ccc(C(=O)O)cc12` [Compound BTT, 3-(n-octyl)indole-5-carboxylic acid], the change in vivo at 0.2 % strength amounted to 0% under setting [1] and 15% under setting [2].
Taken in the same sequence, the figures for `CCCCCCCCCCCCc1cc2ccc(C(=O)O)cc2[nH]1` [Compound S, 2-(n-dodecyl)indole-6-carboxylic acid] were -26% and -52%.
For `CCCCCCCCCCCCc1cc2ccc(C(=O)OCC)cc2[nH]1` [Compound CC, ethyl 2-(n-dodecyl)indole-6-carboxylate], the change in vivo at 0.2 % strength is, setting by setting: under setting [1], -17%; under setting [2], -57%.
With `CCCCCCCCCCCCc1cc2cc(C(=O)OCCCC)ccc2[nH]1` [Compound KK, n-butyl 2-(n-dodecyl)indole-5-carboxylate], the change in vivo at 0.2 % strength was -18% under setting [1] and -34% under setting [2].
On to `CCCCCCCCCCCCCCCCCCCc1cc2cc(C(=O)O)ccc2[nH]1` [Compound PP, 2-(n-nonadecyl)indole-5-carboxylic acid], for which the change in vivo at 0.2 % strength is, setting by setting: under setting [1], -13%; under setting [2], -41%.
On to `CCCCCCCCCCCc1cc2cc(C(=O)OC)ccc2[nH]1` [Compound ATT, methyl 2-(n-undecyl)indole-5-carboxylate], for which the change in vivo at 0.2 % strength runs as follows: under setting [1], -16%; under setting [2], -70%.
Taken in the same sequence, the figures for `CCCCCCCCCCCC1Cc2ccc(C(=O)O)cc2N1C` (racemic) [Compound BII, (RS)-1-methyl-2-(n-undecyl)indoline-6-carboxylic acid] were 0% and -30%.
Taken in the same sequence, the figures for `CCCCCCCCCCCc1cc2cc(C(=O)OCCCC)ccc2[nH]1` [Compound AUU, n-butyl 2-(n-undecyl)indole-5-carboxylate] were -14% and -57%.
In the case of `CCCCCCCCCCCCCCCCc1c[nH]c2cc(C(=O)O)ccc12` [Compound BFF, 3-(n-hexadecyl)indole-6-carboxylic acid], the change in vivo at 0.2 % strength is, setting by setting: under setting [1], 7%; under setting [2], -17%.
